Assay results reported in paper PMC8355244, “A fragment-based approach identifies an allosteric pocket that impacts malate dehydrogenase activity” (Communications Biology, 2021).
“And” between values parts separate entries of the source, which are not always exact repeats. Equal entries are not always repeated.

Molecular target: T1, PfMDH (Plasmodium falciparum, UniProt Q6VVP7)
T1 construct: The full-length WT PfMDH gene was cloned into pETM-13; made in house; host or cells: E. coli Rosetta 2 (DE3) pLysS
Assay: Thermal shift assay (TSA)
Assay type: binding
Conditions: for TSA melting curve raw signal: triplicate columns; for TSA melting curve raw fluorescence signal: three replicate columns
Experimental: The TSA experiment was conducted in a BioRad CSX 96 (Biorad). Each reaction consisted of 1 mM of compound (100 mM stock in 100% (v/v) DMSO) and 10 μM PfMDH in 100 mM Na–phosphate buffer pH 7.4, 400 mM NaCl, and 10× Sypro Orange (Invitrogen) for a total volume of 100 μl. Control experiments were performed with 1% (v/v) DMSO. Inflection points were determined using BioRad CFX96™ control software. Generally, a temperature increase of over 1 °C is interpreted as a result of the stabilization of the protein-ligand interaction. On the contrary, a negative shift is considered a destabilization caused by the fragment.

T1 sequence (Q6VVP7 entry or part of it): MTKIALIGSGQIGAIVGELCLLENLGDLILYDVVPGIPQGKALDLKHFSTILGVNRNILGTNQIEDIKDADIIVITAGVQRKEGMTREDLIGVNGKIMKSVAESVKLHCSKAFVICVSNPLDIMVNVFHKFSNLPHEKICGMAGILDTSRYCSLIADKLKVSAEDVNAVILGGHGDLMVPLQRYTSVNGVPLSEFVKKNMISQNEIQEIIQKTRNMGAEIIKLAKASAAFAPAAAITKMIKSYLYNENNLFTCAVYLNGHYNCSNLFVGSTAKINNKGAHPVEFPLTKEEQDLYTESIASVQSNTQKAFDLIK

SMILES: Cc1ccc(-c2csc(N)n2)cc1C [compound 5a]
- TSA melting curve raw signal (Temperature 42): 3988,71833711846 and 3998,73387424263 and 4016,77538143681
- TSA melting curve raw signal (Temperature 42.5): 4021,21607007206 and 4019,84430210471 and 4054,60967755587
- TSA melting curve raw signal (Temperature 43): 4057,66089779623 and 4044,0111947974 and 4095,39361771176
- TSA melting curve raw signal (Temperature 43.5): 4098,50799079596 and 4071,35680793258 and 4139,49703067488
- TSA melting curve raw signal (Temperature 44): 4143,7029279742 and 4102,93490558282 and 4187,23267299696
- TSA melting curve raw signal (Temperature 44.5): 4193,76415817757 and 4139,12758979339
- TSA melting curve raw fluorescence signal (Temperature 73.5): 6299,79889324093 and 6231,78067625527 and 6109,60097267495
- TSA melting curve raw fluorescence signal (Temperature 74): 6263,77685489112 and 6199,60301810331 and 6079,58574419186
- TSA melting curve raw fluorescence signal (Temperature 74.5): 6227,81230039343 and 6168,07294306546 and 6050,3648537714
- TSA melting curve raw fluorescence signal (Temperature 75): 6191,69391237371 and 6136,98106377792 and 6022,22137708791
- TSA melting curve raw fluorescence signal (Temperature 75.5): 6155,53394325777 and 6106,56217628376 and 5994,69779058543
- TSA melting curve raw fluorescence signal (Temperature 76): 6119,21897947977 and 6076,80705748139 and 5967,4462924716
- TSA melting curve raw fluorescence signal (Temperature 76.5): 6082,92591216179 and 6047,4145361092 and 5940,31651314489
- TSA melting curve raw fluorescence signal (Temperature 77): 6046,49720538895 and 6018,41753205572 and 5913,27495012434
- TSA melting curve raw fluorescence signal (Temperature 77.5): 6010,50289688288 and 5990,00501222795 and 5885,78980691114
- TSA melting curve raw fluorescence signal (Temperature 78): 5974,68191071035 and 5961,9413128759 and 5858,29554785782
- TSA melting curve raw fluorescence signal (Temperature 78.5): 5938,84446109596 and 5933,98335794503 and 5831,1047548002
- TSA melting curve raw fluorescence signal (Temperature 79): 5902,97195912381 and 5906,58331664414 and 5804,43914738993
- TSA melting curve raw fluorescence signal (Temperature 79.5): 5867,41053847852 and 5879,50936774398 and 5777,86836204367
- TSA melting curve raw fluorescence signal (Temperature 80): 5831,53193853565 and 5852,76984504973 and 5751,94689709266
- TSA melting curve raw fluorescence signal (Temperature 80.5): 5795,82019427429 and 5826,58557638173 and 5726,2038969697
- TSA melting curve raw fluorescence signal (Temperature 81): 5760,30095342266 and 5801,18894213247 and 5700,36557719877
- TSA melting curve raw fluorescence signal (Temperature 81.5): 5725,24994225392 and 5776,10279717956 and 5674,32010159986
- TSA melting curve raw fluorescence signal (Temperature 82): 5690,32532905286 and 5751,3477386949 and 5648,72005725552
- TSA melting curve raw fluorescence signal (Temperature 82.5): 5655,78245522646 and 5726,77680893998 and 5623,03287837809
- TSA melting curve raw fluorescence signal (Temperature 83): 5621,55211537617 and 5702,38981297221 and 5597,5741352507
- TSA melting curve raw fluorescence signal (Temperature 83.5): 5587,90100461892 and 5677,89080987549 and 5572,13715933177
- TSA melting curve raw fluorescence signal (Temperature 84): 5554,68764858678 and 5653,54864689514 and 5546,61264074355
- TSA melting curve raw fluorescence signal (Temperature 84.5): 5522,12797974512 and 5629,23115607744 and 5520,89063035555
- TSA melting curve raw fluorescence signal (Temperature 85): 5490,3943722303 and 5605,20109514197 and 5495,02372927899
- TSA melting curve raw fluorescence signal (Temperature 85.5): 5459,26859138261 and 5580,93868945953 and 5469,03090217972
- TSA melting curve raw fluorescence signal (Temperature 86): 5428,58283846294 and 5556,95201224284 and 5443,19308365262
- TSA melting curve raw fluorescence signal (Temperature 86.5): 5398,09747442684 and 5532,99737771582 and 5417,41903670835
- TSA melting curve raw fluorescence signal (Temperature 87): 5367,90135308437 and 5508,96565185791 and 5391,30496945424
- TSA melting curve raw fluorescence signal (Temperature 87.5): 5337,34531670684 and 5484,37750610498 and 5364,66521912081
- TSA melting curve raw fluorescence signal (Temperature 88): 5306,8503048902 and 5459,61999119873 and 5337,15073673697
- TSA melting curve raw fluorescence signal (Temperature 88.5): 5276,4616972104 and 5434,08494262397 and 5308,68599271431
- TSA melting curve raw fluorescence signal (Temperature 89): 5246,27326568905 and 5407,79046445709 and 5279,36241888361
- TSA melting curve raw fluorescence signal (Temperature 89.5): 5216,45044474314 and 5380,95498835197 and 5249,45359350464
- TSA melting curve raw fluorescence signal (Temperature 90): 5187,98991931244
